Measurements reported in article PMC7268545, “Development of a QPatch-Automated Electrophysiology Assay for Identifying TMEM16A Small-Molecule Inhibitors” (Assay and Drug Development Technologies, 2020).
Like-named read-outs stand apart in the source and are kept apart here.

Columns and labels:
[1] = biological target: T1, human ANO1 channel (isoform acd) (Homo sapiens, UniProt Q5XXA6); assay: QPatch-48 automated whole-cell electrophysiology, cumulative five-concentration single-addition protocol; assay type: cell-based
T1 construct: host or cells: HEK293T
T1 sequence (Q5XXA6 1-986): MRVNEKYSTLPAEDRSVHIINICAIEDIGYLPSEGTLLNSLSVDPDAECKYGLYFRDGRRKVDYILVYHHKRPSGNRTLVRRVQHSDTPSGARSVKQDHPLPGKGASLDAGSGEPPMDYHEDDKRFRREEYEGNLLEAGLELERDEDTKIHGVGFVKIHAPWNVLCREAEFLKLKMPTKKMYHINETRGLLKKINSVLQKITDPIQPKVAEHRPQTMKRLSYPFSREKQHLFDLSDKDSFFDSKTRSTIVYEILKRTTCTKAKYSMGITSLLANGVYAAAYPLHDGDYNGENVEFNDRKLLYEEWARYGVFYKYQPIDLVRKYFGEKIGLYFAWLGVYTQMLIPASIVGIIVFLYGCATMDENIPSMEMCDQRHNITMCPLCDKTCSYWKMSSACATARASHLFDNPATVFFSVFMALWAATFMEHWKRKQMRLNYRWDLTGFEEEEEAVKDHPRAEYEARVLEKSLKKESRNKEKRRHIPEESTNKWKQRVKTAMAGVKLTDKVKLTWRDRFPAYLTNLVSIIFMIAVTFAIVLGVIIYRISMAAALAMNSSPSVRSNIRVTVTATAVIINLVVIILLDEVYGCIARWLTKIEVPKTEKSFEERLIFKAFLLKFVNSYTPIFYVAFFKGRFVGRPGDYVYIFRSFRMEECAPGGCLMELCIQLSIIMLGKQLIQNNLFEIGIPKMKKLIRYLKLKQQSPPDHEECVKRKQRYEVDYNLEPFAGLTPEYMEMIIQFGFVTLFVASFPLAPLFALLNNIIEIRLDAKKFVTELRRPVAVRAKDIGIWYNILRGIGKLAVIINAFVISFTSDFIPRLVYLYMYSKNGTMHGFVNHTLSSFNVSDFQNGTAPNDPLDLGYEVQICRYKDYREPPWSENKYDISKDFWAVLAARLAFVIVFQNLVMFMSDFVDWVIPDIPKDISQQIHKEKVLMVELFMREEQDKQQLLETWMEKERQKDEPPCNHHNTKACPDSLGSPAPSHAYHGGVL
Protocol: HEK293T cells stably expressing the human ANO1 channel (isoform acd) were obtained from Scottish Biomedical. Cells were cultured in Sigma Minimum Essential Media containing 10% heat-inactivated fetal bovine serum, 1% penicillin/streptomycin, 1% glutamine, and […] geneticin. Cells were maintained in a 37°C, 5% CO2 environment. Cells were passaged every 3 days after they had reached ∼70% confluency and were not allowed to reach a density greater than 1–2 × 10^5 cells/cm^2 during routine culture. When subculturing, cells were rinsed once with room temperature 1 × phosphate-buffered saline (PBS; Ca^2+/Mg^2+ free), lifted with TrypLE Express, resuspended in prewarmed growth media, and counted using a hemocytometer. Cells were then plated in T150 flasks at a density of 2.9 × 10^4 cells/cm^2 to be either used in the assay or subcultured 72 h later.
On the day of the experiment, cells plated at a density of 2.9 × 10^4 cells/cm^2 72 h prior should be ∼70%–80% confluent. After cells were rinsed with prewarmed 1 × PBS (Ca^2+/Mg^2+ free), 3 mL of room temperature Detachin solution (Genlantis) was added to the flask and tilted gently two to three times to cover all the cells. Approximately 2 mL of Detachin was aspirated from the flask, leaving 1 mL on the cells, and then placed in the 37°C incubator for 5 min. Once cells had rounded up, the cells were dislodged by tapping the flask gently. The cells were then resuspended in 5 mL of warm serum-free media (EX-CELL ACF CHO Medium; Sigma; supplemented with 4 mM L-glutamine and 10 mM HEPES). A glass Pasteur pipette with a rubber bulb was then used to gently dissociate the cells from one another. Detachin will often leave cells as doublets or clumps, conditions that will disrupt seal formation on the QPatch. The cells were triturated ∼30 times and then, still using the Pasteur pipette, transferred into the QPatch Cell Hotel. This ensures that cells detach from one another leaving a suspension of single cells. A QStirrer was added to the Cell Hotel and the cell suspension was immediately placed on the QPatch device. Cells were utilized within 15 min.
Compounds were reconstituted in dimethyl sulfoxide (DMSO; Sigma) as 10 mM stock solutions. An automated dilution machine set up the microtiter plate (MTP ) by making 1:5 dilutions from a starting concentration of 30 μM. The concentration of DMSO was equal for all concentrations tested. Each MTP contained one row of a negative control (DMSO) and a positive control (benzbromarone). A total of eight compounds were run at a time. All compounds tested were produced in-house.
Whole-cell patch-clamp experiments were performed on a QPatch-48-automated electrophysiology platform (Sophion Biosciences) using the 48-channel, single-hole QPlate (resistance 2.0 ± 0.4 MΩ). The external buffer (in mM) was 140 NaCl, 4 KCl, 2 CaCl2, 1 MgCl2, 10 HEPES, 10 glucose, pH 7.4 (osmolarity = 300), and the internal buffer (in mM) was 110 CsCl, 20 TEA-Cl, 5.374 CaCl2, 1.75 MgCl2, 10 EGTA, 10 HEPES, 4 Na2ATP, pH 7.2 (osmolarity = 310). Cell positioning was set to a 5-s wait time with a positioning pressure of −60 mbar and a positioning time-out of 60 s. Resistance was set to increase 750% to ensure the success of positioning. To obtain a seal, pressure was increased to −70 mbar with an allowed pressure of −130 to −20 mbar and a holding pressure of −20 mbar. The holding potential was set to −70 mV and a 240-s time-out was set. The minimum seal resistance was set to 0.02 GΩ. To go whole cell, five 1-s suction pulses were applied starting at −180 mbar and increasing with −40 mbar increments with a pulse period of 10 s. Suction ramp and voltage zap protocols were kept standard, according to the default HEK cell settings. […] The suction ramp order of use was set to 2 with a ramp amplitude of −450 mbar and a ramp slope of 100 ms/mbar.
Once established in whole-cell configuration, cells are clamped to a holding potential (Vhold) of 0 mV.

TMEM16A [2] = biological target: T2, TMEM16A (Homo sapiens, UniProt Q5XXA6); assay: fluorescence-based eYFP-quench assay; assay type: cell-based; conditions: iodide based assay
T2 construct: expressed in transfected cells; host or cells: HEK293T-derived, doxycycline-inducible
T2 sequence (Q5XXA6 1-986): T1 sequence (Q5XXA6 1-986)
Source text: This was possibly due to the eYFP assay being iodide based, since it has been reported that the anion passing through the pore has an effect on the open state of the channel.[12] It is also impossible to control the intracellular calcium level in this assay, which could explain the discrepancy in potency.[37] […] There is clearly a need for an automated electrophysiology assay for TMEM16A, whether looking at activators or inhibitors. TMEM16A has proven to be a difficult channel for electrophysiology, owing to its fast rundown, small currents, and the fact that it is a ligand-gated channel. In addition, fluoride, typically used in automated patch-clamp assays to improve seal quality, is known to decrease calcium salt solubility. Therefore, a fluoride-free internal solution is preferable when trying to control for a precise internal calcium concentration.

TMEM16A [3] = biological target: T2, TMEM16A; parameters: method as in PMID 24642630; conditions: read-out: reported IC50; cited from earlier work
[4] = parameters: method as in PMID 28493701; conditions: cited from earlier work
[5] = independent experiment 1, block at +100 mV, 250 nM internal free-calcium, read-out: IC50s for independent experiments 1
[6] = independent experiment 2, read-out: IC50s for independent experiments 2
[7] = independent experiment 3, read-out: IC50s for independent experiments 3
[8] = independent experiment 4, read-out: IC50s for independent experiments 4

Row | SMILES | IC50 [1, 5] [µM] | IC50 [1, 6] [µM] | IC50 [1, 7] [µM] | IC50 [1, 8] [µM] | other results
1 | N#Cc1c(C(F)(F)F)cc(O)n2c1nc1ccccc12 [1PBC] | 1.18 | 0.85 | 1.1 | 1.57 | potency relative to that reported ([1]; versus reported value, ref 36 (mouse TMEM16A)): ~10 times; inhibition in eYFP-quench assay (TMEM16A [2]): 40%
2 | O=C(O)c1cccnc1Nc1cccc(C(F)(F)F)c1 [Niflumic acid] | 5.29 | 4.62 | 8.45 | 11.1 | IC50 ([1]; full plate format (with rundown), n = 3, read-out: IC50, full plate): 3.89 ± 0.11 µM; IC50 ([1]; independent experiment 5, read-out: IC50s for independent experiments 5): 7.71 µM; effect on deactivation rate ([1]; tail current deactivation): slower deactivation rate; IC50 (TMEM16A [3]): 12 µM
3 | COc1ccccc1/C=N/NC(=O)COc1ccc(Cl)cc1C [Ani9] |  |  |  |  | metabolic stability [4]: metabolically unstable
4 | CCc1c(C)nc(SCC(=O)Nc2nc(-c3ccc(OC)cc3)cs2)[nH]c1=O [T16Ainh-A01] |  |  |  |  | block of current ([1]; maximum block seen): ≤ 40%
